Reference: patent US7132547B2, “Preventives/remedies for urinary disturbance” (priority 2001, dated 2006)
Counter-ions that a name gives are not always drawn.

| melting point | SMILES |
| --- | --- |
| 166 to 168 °C | Cl.O=C(CCCCNCCc1ccccc1)c1cc2c3c(c1)CCN3C(=O)CC2 |
| 169 to 180 °C (dec.) | COc1ccccc1CCN(C)CCCCC(=O)c1ccc2[nH]c(=O)[nH]c2c1.Cl |
| 142 to 157 °C (dec.) | CN(CCCCC(=O)c1ccc2c(c1)n(C)c(=O)n2C)CCc1ccccc1.Cl |
| 187 to 189 °C | Cl.Cn1c(=O)n(C)c2cc(C(=O)CCCCNCCc3ccccc3)ccc21 |
| 193 to 195 °C | Cl.O=C(CCCCNCCc1ccc(Cl)cc1)c1cc2c3c(c1)CCN3C(=O)CC2 |
| 171 to 174 °C | Cl.O=C(CCCCNCCc1c(Cl)cccc1Cl)c1cc2c3c(c1)CCN3C(=O)CC2 |
| 154 to 156 °C | COc1cccc(CCNCCCCC(=O)c2cc3c4c(c2)CCN4C(=O)CC3)c1OC.Cl |
| 160 to 168 °C | COc1ccc(C(=O)CCCCNCCc2ccccc2)cc1S(N)(=O)=O.Cl |
| 139 to 141 °C | COc1ccccc1CCNCCCCC(=O)c1ccc(OC)c(S(N)(=O)=O)c1.Cl |
| 164 to 166 °C | COc1ccccc1CCNCCCCC(=O)c1ccc(OC)c(S(=O)(=O)NC(C)C)c1.Cl |
| 179 to 181 °C | COc1ccc(C(=O)CCCCNCCc2ccccc2Cl)cc1S(=O)(=O)NC(C)C.Cl |
| 160 to 170 °C | Cl.NS(=O)(=O)c1cc(C(=O)CCCCNCCc2ccccc2Cl)cc2c1OCC2 |
| 149 to 151 °C | CC(C)NS(=O)(=O)c1cc(C(=O)CCCCNCCc2ccccc2Cl)cc2c1OCC2.Cl |
| 166 to 168 °C | COc1ccccc1CCNCCCCC(=O)c1cc2c(c(S(N)(=O)=O)c1)OCCO2.Cl |
| 178 to 180 °C | Cl.NS(=O)(=O)c1cc(C(=O)CCCCNCCc2ccccc2Cl)cc2c1OCCO2 |
| 131 to 133 °C | COc1ccc(C(=O)CCCCNCCc2ccccc2)cc1NS(C)(=O)=O.Cl |
| 129 to 131 °C | COc1ccccc1CCNCCCCC(=O)c1ccc(OC)c(NS(C)(=O)=O)c1.Cl |
| 133 to 135 °C | COc1ccc(C(=O)CCCCNCCc2ccccc2Cl)cc1NS(C)(=O)=O.Cl |
| 136 to 138 °C | COc1ccc(C(=O)CCCCCNCCc2ccccc2)cc1NS(C)(=O)=O.Cl |
| 112 to 115 °C | COc1ccc(C(=O)CCCCCNCCc2ccccc2Cl)cc1NS(C)(=O)=O.Cl |
| 143 to 145 °C | COc1ccccc1CCNCCCCC(=O)c1c[nH]c2ccccc12.Cl |
| 149 to 151 °C | Cl.O=C(CCCCNCCc1ccccc1Cl)c1c[nH]c2ccccc12 |
| 151 to 153 °C | Cl.O=C(CCCCCNCCc1ccccc1Cl)c1c[nH]c2ccccc12 |
| 101 to 103 °C | COc1ccccc1CCNCCCCC(=O)c1cccs1.Cl |
| 146 to 147 °C | Cl.O=C(CCCCNCCc1ccccc1Cl)c1cccs1 |
| 107 to 109 °C | COc1ccccc1CCNCCCCCC(=O)c1cccs1.Cl |
| 149 to 151 °C | Cl.O=C(CCCCCNCCc1ccccc1Cl)c1cccs1 |

| melting point | SMILES |
| --- | --- |
| 271 °C | Cl.O=C1CCc2cc(C(=O)[C@H]3CC[C@H](CNCCc4ccccc4Cl)CC3)cc3c2N1CC3 |
| 94 to 96 °C | COc1ccccc1CCNCCCCC(=O)c1cc2c3c(c1)CCN3C(=O)CC2.Cl |
| 136 to 138 °C | COc1cccc(CCNCCCCCC(=O)c2cc3c4c(c2)CCN4C(=O)CC3)c1.Cl |
| 179 to 180 °C | COc1ccc(CCNCCCCCC(=O)c2cc3c4c(c2)CCN4C(=O)CC3)cc1.Cl |
| 172 to 174 °C | Cl.O=C(CCCCCNCCc1ccccc1Cl)c1cc2c3c(c1)CCN3C(=O)CC2 |
| 116 to 118 °C | COc1cccc(CCN(C)CCCCCC(=O)c2cc3c4c(c2)CCN4C(=O)CC3)c1.Cl |
| 176 to 180 °C (dec.) | COc1ccccc1CCNCCCCC(=O)c1ccc2c(c1)CNC(=O)N2.Cl |
| 176 to 185 °C (dec.) | Cl.O=C1NCc2cc(C(=O)CCCCNCCc3ccccc3Cl)ccc2N1 |
| 164 to 166 °C | CN(CCCCC(=O)c1ccc2c(c1)CNC(=O)N2)CCc1ccccc1.Cl |
| 192 to 195 °C (dec.) | CN(CCCCC(=O)c1ccc2c(c1)CNC(=O)N2)CCc1ccccc1Cl.Cl |
| 174 to 176 °C | CN(CCCCC(=O)c1ccc2c(c1)CN(C)C(=O)N2C)CCc1ccccc1.Cl |
| 145 to 146 °C | COc1ccccc1CCN(C)CCCCC(=O)c1ccc2c(c1)CN(C)C(=O)N2C.Cl |
| 187 to 188 °C | CN(CCCCC(=O)c1ccc2c(c1)CN(C)C(=O)N2C)CCc1ccccc1Cl.Cl |
| 240 to 242 °C | COc1cccc(CCN2CCC(CCC(=O)c3cc4c5c(c3)CCN5C(=O)CC4)CC2)c1.Cl |
| 207 to 210 °C | Cl.O=C(CCC1CCN(CCc2ccccc2Cl)CC1)c1cc2c3c(c1)CCN3C(=O)CC2 |
| 204 to 206 °C | Cl.O=C(CCC1CCN(CCc2ccc(Cl)cc2)CC1)c1cc2c3c(c1)CCN3C(=O)CC2 |
| 157 to 159 °C | Cl.O=C(CCC1CCN(CCc2c[nH]c3ccccc23)CC1)c1cc2c3c(c1)CCN3C(=O)CC2 |
| 114 to 116 °C | Cl.O=C(CCC1CCN(CC(=O)c2ccccc2)CC1)c1cc2c3c(c1)CCN3C(=O)CC2 |
| 127 to 129 °C | CCOc1ccccc1OCCN1CCC(CCC(=O)c2ccc(OC)c(NC(C)=O)c2)CC1.Cl |
| 230 to 232 °C | Cl.O=C(CCCN1CCCc2ccccc2C1)c1cc2c3c(c1)CCN3C(=O)CC2 |
| 216 to 218 °C | COc1cc2c(cc1OC)CN(CCCCCC(=O)c1cc3c4c(c1)CCN4C(=O)CC3)CC2.Cl |
| 222 to 225 °C | Cl.O=C(CCCCCN1CCc2ccccc2CC1)c1cc2c3c(c1)CCN3C(=O)CC2 |
| 116 to 118 °C | Cl.O=C(CCCCNCCCc1ccccc1)c1cc2c3c(c1)CCN3C(=O)CC2 |
| 172 to 173 °C | Cl.O=C(CCCCNCCc1cccc(F)c1)c1cc2c3c(c1)CCN3C(=O)CC2 |
| 210 to 212 °C | Cl.O=C(CCC1CCN(CCc2ccccc2F)CC1)c1cc2c3c(c1)CCN3C(=O)CC2 |
| 123 to 125 °C | CCOc1ccccc1OCCN1CCC(CCC(=O)c2ccc(OC)c(N)c2)CC1 (as salt: hydrochloride) |

Further lines, the compound ahead of its results:

| SMILES | melting point |
| --- | --- |
| CN(CCCCC(=O)c1ccc2[nH]c(=O)[nH]c2c1)CCc1ccccc1.Cl | 240 °C |
| COc1ccccc1CCN(C)CCCCC(=O)c1ccc2c(c1)n(C)c(=O)n2C.Cl | 125 to 140 °C (dec.) |
| Cl.O=C(CCCCNCCc1ccccc1Cl)c1ccc2[nH]c(=O)[nH]c2c1 | 233 °C |
| COc1ccc(CCNCCCCC(=O)c2cc3c4c(c2)CCN4C(=O)CC3)cc1.Cl | 179 to 181 °C |
| Cl.O=C(CCCCNCCc1ccccc1O)c1cc2c3c(c1)CCN3C(=O)CC2 | 112 to 113 °C |
| COc1ccc(C(=O)CCCCNCCc2ccccc2Cl)cc1S(N)(=O)=O.Cl | 161 to 163 °C |
| COc1ccccc1CCNCCCCC(=O)c1cc2c(c(S(=O)(=O)NC(C)C)c1)OCC2.Cl | 157 to 159 °C |
| Cl.NS(=O)(=O)c1cc(C(=O)CCCCNCCc2ccccc2)cc2c1OCCO2 | 152 to 154 °C |
| COc1ccccc1CCNCCCCCC(=O)c1ccc(OC)c(NS(C)(=O)=O)c1.Cl | 142 to 144 °C |
| CN(CCCCCC(=O)c1cc2c3c(c1)CCN3C(=O)CC2)CCc1ccccc1.Cl | 83 to 85 °C |
| Cl.O=C1NCc2cc(C(=O)CCCCNCCc3ccccc3)ccc2N1 | 199 to 205 °C (dec.) |
| COc1ccccc1CCN(C)CCCCC(=O)c1ccc2c(c1)CNC(=O)N2.Cl | 170 to 171 °C (dec.) |
| COc1ccccc1CCNCCCC(=O)c1cc2c3c(c1)CCN3C(=O)CC2.Cl | 165 to 167 °C |
| COc1cccc(CCNCCCCC(=O)c2cc3c4c(c2)CCN4C(=O)CC3)c1.Cl | 97 to 100 °C |
| Cl.O=C(CCCCCNCc1ccccc1)c1cc2c3c(c1)CCN3C(=O)CC2 | 181 to 183 °C |
| COc1ccccc1CCN1CCC(CCC(=O)c2cc3c4c(c2)CCN4C(=O)CC3)CC1.Cl | 209 to 211 °C |
| COc1ccc(CCN2CCC(CCC(=O)c3cc4c5c(c3)CCN5C(=O)CC4)CC2)cc1.Cl | 141 to 143 °C |
| CCOc1ccccc1CCN1CCC(CCC(=O)c2cc3c4c(c2)CCN4C(=O)CC3)CC1.Cl | 182 to 184 °C |

| SMILES | melting point |
| --- | --- |
| Cl.O=C(CCC1CCN(CCc2ccccc2O)CC1)c1cc2c3c(c1)CCN3C(=O)CC2 | 220 to 222 °C |
| Cc1cccc(CCN2CCC(CCC(=O)c3cc4c5c(c3)CCN5C(=O)CC4)CC2)c1.Cl | 197 to 199 °C |
| Cl.O=C(CCC1CCN(CCc2ccc([N+](=O)[O-])cc2)CC1)c1cc2c3c(c1)CCN3C(=O)CC2 | 217 to 219 °C |
| Cl.O=C(CCC1CCN(CCc2c(Cl)cccc2Cl)CC1)c1cc2c3c(c1)CCN3C(=O)CC2 | 226 to 229 °C |
| COc1ccc2c(c1)CCCN(CCCC(=O)c1cc3c4c(c1)CCN4C(=O)CC3)C2.Cl | 121 to 123 °C |
| Cl.O=C(CCCCNC1Cc2ccccc2C1)c1cc2c3c(c1)CCN3C(=O)CC2 | 187 to 189 °C |
| COc1cc2c(cc1OC)CN(CCCCC(=O)c1cc3c4c(c1)CCN4C(=O)CC3)CC2.Cl | 215 to 217 °C |
| COc1ccccc1CCNCCCCC(=O)c1cc2c3c(c1)CC(=O)N3CCC2.Cl | 169 to 170 °C |
| Cl.O=C(CCCCNCCc1ccccc1Cl)c1cc2c3c(c1)CCN3C(=O)CC2 | 128 to 130 °C |
| COc1ccc(CCNCCCCC(=O)c2cc3c4c(c2)CCN4C(=O)CC3)cc1S(N)(=O)=O.Cl | 145 °C (dec.) |
| Cl.O=C(CCCCCN1CCCc2ccccc2C1)c1cc2c3c(c1)CCN3C(=O)CC2 | 195 to 197 °C |
| Cc1ccccc1CCN1CCC(CCC(=O)c2cc3c4c(c2)CCN4C(=O)CC3)CC1.Cl | 215 to 216 °C |
| Cl.O=C(CCC1CCN(CCc2cccc(Cl)c2)CC1)c1cc2c3c(c1)CCN3C(=O)CC2 | 223 to 225 °C |
| Cl.O=C(CCC1CCN(C2Cc3ccccc3C2)CC1)c1cc2c3c(c1)CCN3C(=O)CC2 | 290 °C (dec.) |
| Cl.O=C(CCC1CCN(CCCc2ccccc2)CC1)c1cc2c3c(c1)CCN3C(=O)CC2 | 173 to 175 °C |
| O=C(CCC1CCN(CCc2ccccc2)CC1)c1cc2c3c(c1)CCN3C(=O)CC2 (as salt: hydrochloride) | 219 to 221 °C |
| Cl.O=C(CCCCNC1CCc2ccccc21)c1cc2c3c(c1)CCN3C(=O)CC2 (racemic) | 98 to 100 °C |
